In article PMC11882969 (Nature Communications, 2025):
Values joined by “and” are separate entries in the source; they are usually repeats but may differ in a detail not shown here. Equal values may be shown once. Read-outs that look alike come from different tables or passages of the source. Marks after values point to notes of the source that are not given here.

Experiments:
Malate dehydrogenase = test: Enzyme inhibition counter-screen, MDH; assay type: biochemical; details: for MDH inhibition: Log[7019], sheet FigS2d; for MDH activity (DMSO = 100), replicate means: Rep 1-3 mean, sheet FigureS2c
Method: (§1) Enzyme inhibition assays to test for colloidal inhibition were performed at room temperature using CLARIOstar Plate Reader (BMG Labtech). Samples were prepared in 50 mM KPi buffer, pH 7.0 with final DMSO concentration at 1% (v/v). Compounds were incubated with 2 nM AmpC β-lactamase (AmpC) or Malate dehydrogenase (MDH) for 5 min. AmpC reactions were initiated by the addition of 50 μM CENTA chromogenic substrate (219475, Calbiochem). […] MDH reactions were initiated by the addition of 200 μM nicotinamide adenine dinucleotide (NADH) (54839, Sigma Aldrich) and 200 μM oxaloacetic acid (324427, Sigma Aldrich). The change in absorbance was monitored at 340 nm for 60 sec. Initial rates were divided by the DMSO control rate to determine % enzyme activity. Each compound was screened at 100μM in triplicate for three independent experiments, if enzyme inhibition greater than 30% was observed, 8-point half-log concentrations were performed in triplicate for three independent experiments. Data was analyzed using GraphPad Prism 9.1.

AmpC β-lactamase = AmpC β-lactamase (Escherichia coli, UniProt P00811); assay type: biochemical; details: for AmpC inhibition: Log[7019], sheet FigS2d; for AMPC activity (DMSO = 100), replicate means: Rep 1-3 mean, sheet FigureS2c
Method: as §1, with “[…].” for “Each compound was screened at 100μM in triplicate for three independent experiments, if enzyme inhibition greater than 30% was observed, 8-point half-log concentrations were performed in triplicate for three independent experiments.”

[1] = Dynamic light scattering, colloidal aggregation; assay type: physicochemical; details: Log[compound, replicates, sheet FigS2b
Method: Samples were prepared as 8-point half-log dilutions in filtered 50 mM KPi buffer, pH 7.0 with final DMSO concentration at 1% (v/v). Colloidal particle formation was measured using DynaPro Plate Reader II (Wyatt Technologies). All compounds were screened in triplicate.

hCB1 = hCB1 (Homo sapiens, UniProt P21554); test: GloSensor cAMP accumulation assay; assay type: cell-based
Method: Briefly, hCB1-expressing cells were transfected with the GloSensor cAMP DNA construct overnight. […] The results were analyzed using GraphPad Prism 9. Each experiment was performed in triplicate and functional IC50 values were determined from the mean of three independent experiments.

hCB2 = hCB2 (Homo sapiens, UniProt P34972); test: Tango β-arrestin-2 recruitment, HTLA cells, CB2R; assay type: cell-based; design: expressed in transfected cells; host or cells: HEK293 cells stably expressing human CB2R (Laboratory of Ken Mackie); details: hCB2; for Emax: HTLA, read-out: Tango ß-arrestin recruitment Emax; for EC50: read-out: Tango ß-arrestin recruitment EC50
Sequence of hCB2 (P34972 whole entry): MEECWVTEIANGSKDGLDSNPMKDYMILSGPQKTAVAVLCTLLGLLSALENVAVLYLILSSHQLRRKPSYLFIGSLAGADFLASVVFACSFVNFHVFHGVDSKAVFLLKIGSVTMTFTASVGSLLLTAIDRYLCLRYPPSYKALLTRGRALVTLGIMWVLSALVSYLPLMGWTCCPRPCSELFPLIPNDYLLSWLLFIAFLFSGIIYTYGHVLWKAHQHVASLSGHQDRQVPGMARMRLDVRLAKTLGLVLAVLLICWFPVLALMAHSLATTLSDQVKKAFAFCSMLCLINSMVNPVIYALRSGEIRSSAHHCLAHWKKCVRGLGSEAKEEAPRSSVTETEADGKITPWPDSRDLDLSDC
Method: The Tango β-arrestin-2 recruitment assays were performed as described[83]. In brief, HTLA cells (a gift from the laboratory of R. Axel) were transiently transfected with human CB1R or CB2R Tango DNA construct overnight in DMEM supplemented with 10 % FBS, 100 µg ml−1 streptomycin and 100 U ml−1 penicillin. The transfected cells were then plated into poly-L-lysine-coated 384-well white clear-bottom cell culture plates in DMEM containing 1% dialysed FBS at a density of 10,000–15,000 cells per well. After incubation for 6 h, the plates were added with drug solutions prepared in DMEM containing 1% dialysed FBS for overnight incubation. On the day of assay, medium and drug solutions were removed and 20 µl per well of BrightGlo reagent (Promega) was added. The plates were further incubated for 20 min at room temperature and counted using the Wallac TriLux Microbeta counter (PerkinElmer). The results were analysed using GraphPad Prism 9. Each experiment was performed in triplicate and functional IC50 values were determined from the mean of three independent experiments.

Sequence of hCB1 (P21554 whole entry): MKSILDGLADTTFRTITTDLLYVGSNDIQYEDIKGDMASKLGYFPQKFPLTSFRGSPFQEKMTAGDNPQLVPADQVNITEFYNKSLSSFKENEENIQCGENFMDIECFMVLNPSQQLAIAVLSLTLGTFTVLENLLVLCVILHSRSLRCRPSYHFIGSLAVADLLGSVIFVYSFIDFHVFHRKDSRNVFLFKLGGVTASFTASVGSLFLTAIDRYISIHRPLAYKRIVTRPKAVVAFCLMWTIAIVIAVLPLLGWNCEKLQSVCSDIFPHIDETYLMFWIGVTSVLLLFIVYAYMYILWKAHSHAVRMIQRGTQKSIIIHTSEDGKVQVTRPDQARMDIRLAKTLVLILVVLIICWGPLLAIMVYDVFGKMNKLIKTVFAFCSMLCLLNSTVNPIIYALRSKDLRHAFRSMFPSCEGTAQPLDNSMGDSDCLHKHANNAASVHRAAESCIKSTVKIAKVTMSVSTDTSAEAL
Sequence of AmpC β-lactamase (P00811 20-377): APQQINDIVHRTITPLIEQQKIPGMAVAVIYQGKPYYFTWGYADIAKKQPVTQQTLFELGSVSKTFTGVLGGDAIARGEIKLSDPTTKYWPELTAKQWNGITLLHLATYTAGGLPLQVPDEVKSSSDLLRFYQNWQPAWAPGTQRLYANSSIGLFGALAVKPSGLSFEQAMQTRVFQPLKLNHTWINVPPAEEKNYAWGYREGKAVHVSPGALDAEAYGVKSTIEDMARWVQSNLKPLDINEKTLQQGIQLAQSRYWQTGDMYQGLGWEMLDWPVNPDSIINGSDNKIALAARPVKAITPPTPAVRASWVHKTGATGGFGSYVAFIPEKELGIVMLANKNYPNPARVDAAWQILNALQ

SMILES: Cc1nc(CC2CC2)oc1-c1nc(Cc2cc3c(cc2Br)OCO3)no1 [‘7019]
- MDH inhibition (Malate dehydrogenase; uM 0): 0
- MDH inhibition (Malate dehydrogenase; uM 1): 0
- MDH inhibition (Malate dehydrogenase; uM 1.49996): 13.7
- MDH inhibition (Malate dehydrogenase; uM 2): 16.9
- MDH inhibition (Malate dehydrogenase; uM -0.500011): 0
- MDH inhibition (Malate dehydrogenase; uM -1): 0
- AmpC inhibition (AmpC β-lactamase; uM 0): 0
- AmpC inhibition (AmpC β-lactamase; uM 1): 0
- AmpC inhibition (AmpC β-lactamase; uM 1.49996): 27.6
- AmpC inhibition (AmpC β-lactamase; uM 2): 55.1
- AmpC inhibition (AmpC β-lactamase; uM -0.500011): 0
- AmpC inhibition (AmpC β-lactamase; uM -1): 0
- DLS scattering intensity ([1]; uM] 0): 2130000 and 1970000 and 1380000
- DLS scattering intensity ([1]; uM] 1): 1540000 and 2950000 and 1930000
- DLS scattering intensity ([1]; uM] 1.49996): 46500000 and 37100000 and 47300000
- DLS scattering intensity ([1]; uM] 2): 1480000* and 177000000 and 144000000
- DLS scattering intensity ([1]; uM] -0.500011): 1270000 and 1420000 and 400669
- DLS scattering intensity ([1]; uM] -1): 2530000 and 1820000 and 2230000

SMILES: Cn1nc(-c2nnc(C(C)(C)Oc3ccc(Cl)cc3)o2)c2ccccc2c1=O [‘0450]
- MDH activity (DMSO = 100), replicate means (Malate dehydrogenase): 124.427 and 98.8422 and 101.682
- AMPC activity (DMSO = 100), replicate means (AmpC β-lactamase): 142.819 and 64.3814 and 173.064
- DLS scattering intensity ([1]; uM] 0): 721249 and 1482870 and 678793
- DLS scattering intensity ([1]; uM] 0.5): 820738 and 723783 and 889231
- DLS scattering intensity ([1]; uM] 1): 2818066 and 935392 and 954008
- DLS scattering intensity ([1]; uM] 1.49996): 37596765 and 31006318 and 24739178
- DLS scattering intensity ([1]; uM] 2): 93917555 and 151664189 and 85385693
- DLS scattering intensity ([1]; uM] -0.500011): 759174 and 1269323 and 983915
- DLS scattering intensity ([1]; uM] -1): 623247 and 1064137 and 868483
- DLS scattering intensity ([1]; uM] -1.5): 703949 and 596678 and 546381

SMILES: COC(=O)C(C)(NC(=O)c1cc(C)n(-c2cccc(C(F)(F)F)c2)n1)c1cccs1 (stereo not shown) [‘4042]
- Emax (hCB1): 91%
- Glosensor cAMP pEC50 (hCB1): 10.4 [10.3 – 10.5]
- Emax (hCB2): 28%
- Tango ß-arrestin recruitment pEC50 (hCB2): 7.5 [7.2 – 7.7]
- EC50 (hCB2): 33.9 nM

SMILES: COC(=O)C(NC(=O)c1cc(C)n(-c2cccc(F)c2)n1)c1cccs1 (stereo not shown) [‘51486]
- MDH activity (DMSO = 100), replicate means (Malate dehydrogenase): 74.7583 and 87.0115 and 96.3724
- AMPC activity (DMSO = 100), replicate means (AmpC β-lactamase): 133.645 and 104.886 and 117.294
- DLS scattering intensity ([1]; uM] 0): 759657 and 686584 and 965322
- DLS scattering intensity ([1]; uM] 0.5): 1020197 and 797976 and 985220
- DLS scattering intensity ([1]; uM] 1): 599581 and 807564 and 813072
- DLS scattering intensity ([1]; uM] 1.49996): 1081636 and 666504 and 646696
- DLS scattering intensity ([1]; uM] 2): 2657372 and 4460546 and 3577303
- DLS scattering intensity ([1]; uM] -0.500011): 732851 and 712729 and 950123
- DLS scattering intensity ([1]; uM] -1): 747604 and 1271629 and 624256
- DLS scattering intensity ([1]; uM] -1.5): 774618 and 1013605 and 787428

SMILES: COC(=O)C(NC(=O)c1cc(C)n(-c2cccc(C(F)(F)F)c2)n1)c1cccs1 (stereo not shown) [‘60154]
- EC50 (hCB1): 25.2 nM
- Emax (hCB1): 82%
- Glosensor cAMP pEC50 (hCB1): 7.6 [7.4 – 7.8]
- Emax (hCB2): 21%
- Tango ß-arrestin recruitment pEC50 (hCB2): 5.5 [5.4 – 5.6]
- EC50 (hCB2): 3340 nM
